We go through 30 compounds from patent US20090029983A1, “NOVEL HETEROCYCLIC COMPOUNDS HAVING ANTI-HBV ACTIVITY” (priority 2005, published 2009).

This experiment deals with HBV. The experiment can be described thus: HBV screening assay (viral DNA in baculovirus-HBV transduced HepG2 cells). Format: cell-based. The note with it: Hepatitis B virus, HepG2, 72 h, read-out: EC50 (antiviral activity), HBV-transduced HepG2 cells, three days with compound, viral DNA by ELISA. How it is done: HepG2 cells were transduced using a baculovirus to deliver the HBV genome essentially as previously described (Delaney et al. in Hepatology 1998; 28: 1134-1146). Transduced cells were cultured in supplemented EMEM media with 10% fetal bovine serum in a 5% CO2 incubator at 37° C. for three days in the presence of test compounds. The cells were lysed in a buffer containing 0.5% NP-40 and […] proteinase K. A solid-phase hybridization was performed to capture the viral DNA and to label the target DNA with Digoxigenin-labeled DNA probes. The viral DNA was detected by ELISA, using horseradish peroxidase-conjugated anti-digoxigenin antibodies.
The EC50 values were determined using ExcelFit software from the inhibition values of a titration curve for each compound. For CC50 determinations, the same titration of compounds was co-cultured with non-transduced HepG2 for three days under the conditions described above. The Promega CellTiter 96 Aqueous One Solution Cell Proliferation Assay was used to measure cell proliferation/viability. The CC50 values were determined using ExcelFit software from the inhibition values of the titration curve for each compound.
(In an ELISA, binding on a coated surface is turned into a signal by an enzyme label.)

The structures appear in SMILES notation.

As usually defined, the EC50 is the concentration needed to bring the measured effect to its halfway point. Turning to `CC(C)(C)OC(=O)N1Cc2nc3sc(C(N)=O)c(N)c3c(-c3cccs3)c2C1` [Compound 1, 3-Amino-6-tert-butyloxycarbonyl-4-thiophen-2-yl-6,7-dihydro-5H-1-thia-6,8-diaza-s-indacene-2-carboxylic acid amide], the half-maximal effective concentration (EC50) is greater than 10 µM.

On to `NC(=O)c1sc2nc3c(c(-c4cccs4)c2c1N)CNC3` [Compound 2, 3-Amino-4-thiophen-2-yl-6,7-dihydro-5H-1-thia-6,8-diaza-s-indacene-2-carboxylic acidamide], for which the EC50 was in the range of 1 to 10 µM.

With `NC(=O)c1sc2nc3c(c(-c4cccs4)c2c1N)CN(CCCCl)C3` [Compound 3, 3-Amino-6-(3-chloro-propyl)-4-thiophen-2-yl-6,7-dihydro-5H-1-thia-6,8-diaza-s-indacene-2-carboxylic acid amide], the EC50 is 1 to 10 µM.

Consider `NC(=O)c1sc2nc3c(c(-c4cccs4)c2c1N)CN(CC1CCCCO1)C3` (stereo not drawn) [Compound 4, 3-Amino-6-(tetrahydro-pyran-2-ylmethyl)-4-thiophen-2-yl-6,7-dihydro-5H-1-thia-6,8-diaza-s-indacene-2-carboxylic acid amide], for which the concentration giving a half-maximal response (EC50) was greater than 10 µM.

Turning to `COc1ccccc1-c1nc(CN2Cc3nc4sc(C(N)=O)c(N)c4c(-c4cccs4)c3C2)no1` [Compound 5, 3-Amino-6-[5-(2-methoxy-phenyl)-[1,2,4]oxadiazol-3-ylmethyl]-4-thiophen-2-yl-6,7-dihydro-5H-1-thia-6,8-diaza-s-indacene-2-carboxylic acid amide], the EC50 was in the range of 1 to 10 µM.

As for `CC(C)CCN1Cc2nc3sc(C(N)=O)c(N)c3c(-c3cccs3)c2C1` [Compound 6, 3-Amino-6-(3-methyl-butyl)-4-thiophen-2-yl-6,7-dihydro-5H-1-thia-6,8-diaza-s-indacene-2-carboxylic aicd amide], the EC50 was greater than 10 µM.

Consider `NC(=O)c1sc2nc3c(c(-c4cccs4)c2c1N)CN(Cc1ccccn1)C3` [Compound 7, 3-Amino-6-pyridin-2-ylmethyl-4-thiophen-2-yl-6,7-dihydro-5H-1-thia-6,8-diaza-s-indacene-2-carboxylic acid amide], for which the concentration for a half-maximal effect (EC50) was greater than 10 µM.

For the compound `NC(=O)c1sc2nc3c(c(-c4cccs4)c2c1N)CN(CC1CC1)C3` [Compound 8, 3-Amino-6-cyclopropylmethyl-4-thiophen-2-yl-6,7-dihydro-5H-1-thia-6,8-diaza-s-indacene-2-carboxylic acid amide], the EC50 was greater than 10 µM.

Consider `NC(=O)c1sc2nc3c(c(-c4cccs4)c2c1N)CN(CCOC(=O)c1ccccc1)C3` [Compound 9, 3-Amino-6-(2-benzoyloxy-ethyl)-4-thiophen-2-yl-6,7-dihydro-5H-1-thia-6,8-diaza-s-indacene-2-carboxylic acid amide], for which the half-maximal effective concentration (EC50) lay in the range of 1 to 10 µM.

Regarding `NC(=O)c1sc2nc3c(c(-c4cccs4)c2c1N)CN(CCc1ccccc1)C3` [Compound 10, 3-Amino-6-phenethyl-4-thiophen-2-yl-6,7-dihydro-5H-1-thia-6,8-diaza-s-indacene-2-carboxylic acid amide], the EC50 is greater than 10 µM.

For `NC(=O)c1sc2nc3c(c(-c4cccs4)c2c1N)CN(CC1CCCCC1)C3` [Compound 11, 3-Amino-6-cyclohexylmethyl-4-thiophen-2-yl-6,7-dihydro-5H-1-thia-6,8-diaza-s-indacene-2-carboxylic acid amide], the EC50 is 1 to 10 µM.

Turning to `NC(=O)c1sc2nc3c(c(-c4cccs4)c2c1N)CN(CC(=O)c1ccc(Cl)cc1)C3` [Compound 12, 3-Amino-6-[2-(4-chloro-phenyl)-2-oxo-ethyl]-4-thiophen-2-yl-6,7-dihydro-5H-1-thia-6,8-diaza-s-indacene-2-carboxylic acidamide], the EC50 lay in the range of 1 to 10 µM.

Turning to `CC(CO)CN1Cc2nc3sc(C(N)=O)c(N)c3c(-c3cccs3)c2C1` (stereo not drawn) [Compound 13, 3-Amino-6-(3-hydroxy-2-methyl-propyl)-4-thiophen-2-yl-6,7-dihydro-5H--thia-6,8-diaza-s-indacene-2-carboxylic acid amide], the EC50 lay within 1 to 10 µM.

As for `CC(C)CN1Cc2nc3sc(C(N)=O)c(N)c3c(-c3cccs3)c2C1` [Compound 14, 3-Amino-6-isobutyl-4-thiophen-2-yl-6,7-dihydro-5H-1-thia-6,8-diaza-s-indacene-2-carboxylic acid amide], the EC50 was greater than 10 µM.

For the compound `NC(=O)c1sc2nc3c(c(-c4cccs4)c2c1N)CN(CCO)C3` [Compound 15, 3-Amino-6-(2-hydroxy-ethyl)-4-thiophen-2-yl-6,7-dihydro-5H-1-thia-6,8-diaza-s-indacene-2-carboxylic acid amide], the EC50 was in the range of 1 to 10 µM.

For the compound `CCCCCN1Cc2nc3sc(C(N)=O)c(N)c3c(-c3cccs3)c2C1` [Compound 16, 3-Amino-6-pentyl-4-thiophen-2-yl-6,7-dihydro-5H-1-thia-6,8-diaza-s-indacene-2-carboxylic acid amide], the EC50 was greater than 10 µM.

Turning to `COCCN1Cc2nc3sc(C(N)=O)c(N)c3c(-c3cccs3)c2C1` [Compound 17, 3-Amino-6-(2-methoxy-ethyl)-4-thiophen-2-yl-6,7-dihydro-5H-1-thia-6,8-diaza-s-indacene-2-carboxylic acid amide], the EC50 is greater than 10 µM.

`CCOC(=O)CN1Cc2nc3sc(C(N)=O)c(N)c3c(-c3cccs3)c2C1` [Compound 18, 3-Amino-6-carbethoxymethyl-4-thiophen-2-yl-6,7-dihydro-5H-1-thia-6,8-diaza-s-indacene-2-carboxylic acid amide]: the concentration giving a half-maximal response (EC50) is greater than 10 µM.

Take `NC(=O)c1sc2nc3c(c(-c4cccs4)c2c1N)CN(CCN1C(=O)c2ccccc2C1=O)C3` [Compound 19, 3-Amino-6-[2-(1,3-dioxo-1,3-dihydro-isoindol-2-yl)-ethyl]-4-thiophen-2-yl-6,7-dihydro-5H-1-thia-6,8-diaza-s-indacene-2-carboxylic acid amide]: the concentration for a half-maximal effect (EC50) is greater than 10 µM.

Regarding `NC(=O)c1sc2nc3c(c(-c4cccs4)c2c1N)CN(Cc1cccnc1)C3` [Compound 20, 3-Amino-6-pyridin-3-ylmethyl-4-thiophen-2-yl-6,7-dihydro-5H-1-thia-6,8-diaza-s-indacene-2-carboxylic acid amide], the concentration for a half-maximal effect (EC50) was less than 1 µM.

Consider `NC(=O)c1sc2nc3c(c(-c4cccs4)c2c1N)CN(Cc1ccccc1)C3` [Compound 21, 3-Amino-6-benzyl-4-thiophen-2-yl-6,7-dihydro-5H-1-thia-6,8-diaza-s-indacene-2-carboxylic acid amide], for which the EC50 lay within 1 to 10 µM.

For `Cc1ccccc1CN1Cc2nc3sc(C(N)=O)c(N)c3c(-c3cccs3)c2C1` [Compound 22, 3-Amino-6-(2-methyl-benzyl)-4-thiophen-2-yl-6,7-dihydro-5H-1-thia-6,8-diaza-s-indacene-2-carboxylic acid amide], the EC50 is 1 to 10 µM.

As for `NC(=O)c1sc2nc3c(c(-c4cccs4)c2c1N)CN(Cc1cccc(F)c1)C3` [Compound 23, 3-Amino-6-(3-fluoro-benzyl)-4-thipohen-2-yl-6,7-dihydro-5H-1-thia-6,8-diaza-s-indacene-2-carboxylic acid amide], the 50% effective concentration (EC50) is greater than 10 µM.

Consider `COc1cc(CN2Cc3nc4sc(C(N)=O)c(N)c4c(-c4cccs4)c3C2)cc(OC)c1` [Compound 24, 3-Amino-6-(3,5-dimethoxy-benzyl)-4-thiophen-2-yl-6,7-dihydro-5H-1-thia-6,8-diaza-s-indacene-2-carboxylic acid amide], for which the 50% effective concentration (EC50) is greater than 10 µM.

Turning to `NC(=O)c1sc2nc3c(c(-c4cccs4)c2c1N)CN(CCCN1CCN(c2ncccn2)CC1)C3` [Compound 25, 3-Amino-6-[3-(4-pyrimidin-2-yl-piperazin-1-yl)-propyl]-4-thiophen-2-yl-6,7-dihydro-5H-1-thia-6,8-diaza-s-indacene-2-carboxylicacid amide], the EC50 is greater than 10 µM.

As to `COC1CCCCN1CCCN1Cc2nc3sc(C(N)=O)c(N)c3c(-c3cccs3)c2C1` (stereo not drawn) [Compound 26, 3-Amino-6-[3-(2-methoxy-piperidin-1-yl)-propyl]-4-thiophen-2-yl-6,7-dihydro-5H-1-thia-6,8-diaza-s-indacene-2-carboxylic acidamide], the concentration for a half-maximal effect (EC50) was greater than 10 µM.

Regarding `NC(=O)c1sc2nc3c(c(-c4cccs4)c2c1N)CN(CCCN1CCOCC1)C3` [Compound 27, 3-Amino-6-(3-morpholin-4-yl-propyl)-4-thiophen-2-yl-6,7-dihydro-5H-1-thia-6,8-diaza-s-indacene-2-carboxylic acid amide], the 50% effective concentration (EC50) was greater than 10 µM.

`CC(O)CNCCCN1Cc2nc3sc(C(N)=O)c(N)c3c(-c3cccs3)c2C1` (stereo not drawn) [Compound 28, 3-Amino-6-[3-(2-hydroxy-propylamino)-propyl]-4-thiophen-2-yl-6,7-dihydro-5H-1-thia-6,8-diaza-s-indacene-2-carboxylic acidamide]: the concentration for a half-maximal effect (EC50) was greater than 10 µM.

Regarding `NC(=O)c1sc2nc3c(c(-c4cccs4)c2c1N)CCNC3` [Compound 29, 3-Amino-4-thiophen-2-yl-5,6,7,8-tetrahydro-1-thia-7,9-diaza-cyclopenta[b]naphthalene-2-carboxylic acidamide], the EC50 is less than 1 µM.

`CC(C)(C)OC(=O)N1CCc2c(nc3sc(C(N)=O)c(N)c3c2-c2cccs2)C1` [Compound 30, 3-Amino-7-tert-butyloxycarbonyl-4-thiophen-2-yl-5,6,7,8-tetrahydro-1-thia-7,9-diaza-cyclopenta[b]naphthalene-2-carboxylic acid amide]: the half-maximal effective concentration (EC50) was greater than 10 µM.
